In US6046231A, “Use of 4'-bromoflavone in a cancer chemopreventative composition and method” (The Board of Trustees of the University of Illinois, priority 1999, dated 2000):

Assays:
[1] = system: QR mRNA, Hepa 1c1c7 cells; experiment: RT-PCR of QR mRNA in Hepa 1c1c7 cells; assay type: cell-based, murine
Experimental: RT-PCR Analysis of QR mRNA Expression. Primers were designed based on rat QR gene and custom synthesis. Total RNA was isolated from cultured Hepa 1c1c7 cells with TRIzol® reagent (Life Technologies, Inc.) and quantified using a UV-spectrometer. The reverse transcription of RNA was performed in a final volume of 20 μl containing 5× First Straind Synthesis Buffer (Life Technologies, Inc.), 5 mM MgCl2, 1 mM of each dNTPs, 1 unit Rnase inhibitor (Life Technologies, Inc.), 2.5 units SuperScript II reverse transcriptase (Life Technologies, Inc.), 2.5 μM oligo (dT)16, 0.2 μg total RNA, and DEPC-treated water. After incubation at 47° C. for 30 min, the RT-reaction was terminated by heating to 70° C. for 15 minutes. To the newly synthesized cDNA (1 μL), a PCR reaction mixture (Advantage KlenTaq polymerase Mix, CloneTech) containing 3 mM MgCl2, 2.5 units Taq polymerase, 6 pmol of primers for QR gene (5'-[…]-3'; and 3 pmol of primers for β-actin, 5'-[…]-3'), (5'-[…]-3'; 5'-[…]-3') as internal control was added to bring the final volume to 50 μl. The PCR reaction was heated to 94° C. for 1 min and immediately cycled 27 times through a 30 second denaturing step at 94° C., a 45 second annealing step at 55° C., a 60 second elongation step at 72° C. with Perkin Elmer 2400 themocycler. Following the final cycle, a 5 minute elongation step at 72° C. was performed. Aliquots of the PCR product were electrophoresed on 2.5% agarose gels (Life Technologies, Inc.), and PCR fragments were visualized with ethidium bromide staining, quantified by scanning densitometry, and expressed as folds increase after normalization to β-actin gene expression.
Induction of QR mRNA in Hepa 1c1c7 Cells. […] EHPA 1c1c7 cells were treated with 4'-BF (10 μM) or DMSO (solvent control) for 2, 4, 8, 16, 24, or 48 hours. […] Dose-dependent effects of 4'-BF were analyzed at the time of maximum induction (24 hours), and QR mRNA expression was induced in the concentration range of 0.8-50 μM. In particular, FIG. 2 illustrates RT-PCR analysis of QR mRNA levels in Hepa 1c1c7 cells after treatment with 4'-BF. In FIG. 2(A), Hepa 1c1c7 cells were treated with the indicated concentrations of 4'-BF for 24 hours. In FIG. 2(B), Hepa 1c1c7 cells were treated with 10 μM 4'-BF for the indicated periods of time. Reverse transcription was carried out by SuperScript II reverse transcriptase (Life Technologies, Inc.) and oligo(dT)16. The cDNA was amplified with Advantage Klen Taq polymerase (Clontech) by using QR primers and β-acrin (internal control), aliquots of the PCR product were electrophoresed on 2.5% agarose gels (Bio-Rad), and PCR fragments were visualized with ethidium bromide staining.

[2] = system: HepG2 cells (B[α]P-DNA adducts); experiment: Binding of metabolically activated [3H]B[α]P to DNA of cultured HepG2 cells; assay type: cell-based; details: Homo sapiens, read-out: IC50, formation of B[α]P-DNA adducts, HepG2
Experimental: Effect of 4'-BF on the Binding of Metabolically Activated [^3 H]B[α]P to DNA of Cultured Cells. HepG2 cells or MCF-7 cells were plated at a density of 1×10^6 cells/dish in 6 cm Petri dishes and allowed to incubate for 18 hours. Fresh media containing test samples were added to the cells 2 hours prior to the addition of 1 μM [^3 H]B[α]P (10 Ci/mmol) The test compound and tritiated carcinogen then were incubated for 6 hours. Following incubation, genomic DNA was extracted by the method described by Sharma et al., with minor modifications. Briefly, the cells were washed three times with PBS and harvested by incubation with 0.5 ml of proteinase K (100 μg/ml) in 0.2 M Tris-0.1 M EDTA (pH 8.5) for 10 min at 37° C. The cells were gently scraped from the dishes, transferred to 50 μl of 10% SDS solution, and incubated for 3 hours at 55° C. […] An aliquot of harvested DNA was used for measuring the relative absorbencies at 260 and 280 nm (A2360 nm/A2380 nm=1.7-1.9), and the DNA content was determined by absorbance at 260 nm (1 A2360 nm unit=50 μg). The remaining sample was used for the determination of radioactivity. All experiments were performed in triplicate; percentage inhibition of carcinogen-DNA binding mediated by test samples was calculated as follows: % inhibition=[1-(dpm per μg DNA test cells/dpm per μg DNA control cells)]×100.

Structure (SMILES): O=c1cc(-c2ccc(Br)cc2)oc2ccccc12 [4'-Bromoflavone]
- QR mRNA levels ([1]; 0-50 μM for 24 h): significantly increased by 4'-BF at various concentrations
- QR mRNA, time course from 8 to 24 hours ([1]; 10 μM): no significant differences from 8 to 24 hours
- incubation time after which QR mRNA increased ([1]; 10 μM): 8 h
- time of maximum QR mRNA induction ([1]; 10 μM): 24 h
- concentration range of QR mRNA induction ([1]; 24 h): 0.8 to 50 µM
- IC50 [2]: ~3.1 µM
